From PMC6332188, “Synthesis, Antiviral Bioactivity of Novel 4-Thioquinazoline Derivatives Containing Chalcone Moiety” (Molecules, 2015)

Target: T1, TMV CP (tobacco mosaic virus coat protein) (Tobacco mosaic virus (vulgare), UniProt P69687)
T1 construct: labelled with Monolith NT Protein Labeling Kit Red
Test: microscale thermophoresis
Format: binding
Description: microscale thermophoresis on TMV CP (tobacco mosaic virus coat protein)

T1 sequence (P69687 2-159 limits assumed): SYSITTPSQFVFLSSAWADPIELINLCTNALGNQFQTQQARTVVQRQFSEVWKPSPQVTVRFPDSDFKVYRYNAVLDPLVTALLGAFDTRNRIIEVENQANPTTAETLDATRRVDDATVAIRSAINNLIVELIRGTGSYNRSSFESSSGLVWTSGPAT

In order of falling Kd:
1. NC(=O)c1ncn([C@@H]2O[C@H](CO)[C@@H](O)[C@H]2O)n1 [Ribavirin]  511 ± 33.1 µM
2. O=C(/C=C/c1ccc(Cl)cc1)c1ccc(OCCSc2ncnc3ccccc23)cc1 [M15]  346 ± 23.9 µM
3. COc1ccc(/C=C/C(=O)c2ccc(OCCSc3ncnc4ccccc34)cc2)cc1OC [M6, (E)-3-(3,4-Dimethoxyphenyl)-1-(4-(2-(quinazolin-4-ylthio)ethoxy)phenyl)prop-2-en-1-one]  31.1 ± 1.83 µM
